The results in this text go back to patent US7211561B2, “Method for inducing selective cell death of malignant cells by activation of calcium-activated potassium channels (KCa)” (Cedars-Sinai Medical Center, priority 2001, dated 2007).

One series has as its system U87 human glioma cells. The series is described as follows: In vitro apoptosis assay (Annexin V-FITC/propidium iodide, FACS). The format is cell-based. As to conditions: 5 μM, positive control (FIG. 5C). Here is the method:
Human glioma cells (U-87) and HBMVECells were seeded into a 25-mL tissue-culture flask. After 24 h (about 60–70% confluencey), cells were treated with either […] (50 or 100 micrograms/mL) or staurosporine (positive control; 5 μM), a known inducer of apoptosis (Tamaoki, T., et al., Staurosporine, a potent inhibitor of phospholipid/Ca^++ dependent protein kinase, Biochem. Biophys. Res. Commun. 135: 397–402 [1986]; Matsumoto, H., and Sasaki, Y., Staurosporine, a protein kinase C inhibitor interferes with proliferation of arterial smooth muscle cells, Biochem. Biophys. Res. Commun. 158:105–109 [1989]). U-87 cells were returned to the CO2 incubator and incubated overnight. The following day, cells were washed twice with fresh growth medium and cells prepared for FACS analysis as described hereinbelow.
The changes in plasma membrane are one of the earliest events in cell death. In apoptotic cells the membrane phospholipid phosphatidylserine (PS) is translocated from the inner to the outer leaflet of the cell membrane in the early phases of apoptosis. Annexin V is a Ca^2+-dependent, phospholipid-binding protein that binds to PS with high affinity. Consequently, Annexin V (PharMingen) conjugated to a label, such as fluorescein isothiocyanate (FITC) or biotin, serves as a sensitive probe for flow cytometry analysis of cells that are undergoing apoptosis. […] (PharMingen; Vermes, I. et al., A novel assay for apoptosis. Flow cytometric detection of phosphatidylserine expression on early apoptotic cells using fluorescein labelled Annexin V, J. Immunol. Meth. 184:39–51 [1995]). Concurrently, propidium iodide is typically used as a standard flow cytometric viability probe, because the intact cell membranes of viable cells exclude propidium iodide, whereas the cell membranes of dead and damaged cells are permeable to propidium iodide. Cells that stain positive for Annexin V and negative for propidium iodide are undergoing apoptosis; cells that stain positive for both Annexin V and propidium iodide are either at the end stage of apoptosis, are undergoing necrosis, or are already dead; and cells that stain negative for both Annexin V-biotin and propidium iodide are alive and not undergoing measurable apoptosis. Briefly, the cells were washed twice with cold PBS and then resuspended in 1× binding buffer (10 mM HEPES/NaOH, pH 7.4, 140 mM NaCl, 2.5 mM CaCl2; 4° C.) at a concentration of about 1×10^6 cells/mL. A 100-μL aliquot of cell suspension was transferred to 5-mL culture tubes, and 2.5 μL of Annexin V-FITC and 2.5-μL of propidium iodide (PharMingen) were added to each tube. The cell suspensions were gently mixed and incubated for 15 min at room temperature in the dark, after which 400 μL of binding buffer was added to each tube of cells. […]

For series [1], the system named is implanted RG2 glioma tumor in Wistar rats. As to the kind of experiment: In vivo apoptosis, intracarotid infusion, implanted tumor tissue (FACS). Further details: species or system rat. As to conditions: RG2 tumor; 20 μg/kg body mass bolus, positive control (FIG. 8I). From the text: The changes in plasma membrane are one of the earliest events in cell death. In apoptotic cells the membrane phospholipid phosphatidylserine (PS) is translocated from the inner to the outer leaflet of the cell membrane in the early phases of apoptosis. Annexin V is a Ca^2+-dependent, phospholipid-binding protein that binds to PS with high affinity. Consequently, Annexin V (PharMingen) conjugated to a label, such as fluorescein isothiocyanate (FITC) or biotin, serves as a sensitive probe for flow cytometry analysis of cells that are undergoing apoptosis. […] (PharMingen; Vermes, I. et al., A novel assay for apoptosis. Flow cytometric detection of phosphatidylserine expression on early apoptotic cells using fluorescein labelled Annexin V, J. Immunol. Meth. 184:39–51 [1995]). Concurrently, propidium iodide is typically used as a standard flow cytometric viability probe, because the intact cell membranes of viable cells exclude propidium iodide, whereas the cell membranes of dead and damaged cells are permeable to propidium iodide. Cells that stain positive for Annexin V and negative for propidium iodide are undergoing apoptosis; cells that stain positive for both Annexin V and propidium iodide are either at the end stage of apoptosis, are undergoing necrosis, or are already dead; and cells that stain negative for both Annexin V-biotin and propidium iodide are alive and not undergoing measurable apoptosis. Briefly, the cells were washed twice with cold PBS and then resuspended in 1× binding buffer (10 mM HEPES/NaOH, pH 7.4, 140 mM NaCl, 2.5 mM CaCl2; 4° C.) at a concentration of about 1×10^6 cells/mL. A 100-μL aliquot of cell suspension was transferred to 5-mL culture tubes, and 2.5 μL of Annexin V-FITC and 2.5-μL of propidium iodide (PharMingen) were added to each tube. The cell suspensions were gently mixed and incubated for 15 min at room temperature in the dark, after which 400 μL of binding buffer was added to each tube of cells. The cells were then washed once with 1×binding buffer. Analysis by flow cytometry was then conducted immediately, and no later than within one hour. The resulting analytic FACS graphs were typically divided into four quadrants wherein the upper right (UR) quadrant represented the number of necrotic cells; the lower left (LL) quadrant represented the number of viable cells; the lower right (LR) quadrant represented the number of apoptotic cells; and the upper left (UL) represented cells of an intermediate category, which generally represents cell debris and DNA fragments. The percentage of gated events in each quadrant was used to determine the total percentage of apoptotic and necrotic cells in each cell suspension.
A rat tumor model, which consisted of intracranially implanted RG2 cells (rat glioma cell line) in Wistar rats, was employed to investigate whether any of several potassium channel activators induce selective apoptosis of tumor cells in vivo.
The techniques for RG2 cell propagation and maintenance in tissue culture have been described (Sugita, M. and Black, K. L., Cyclic GMP-specific phosphodiesterase inhibition and intracarotid bradykinin infusion enhances permeability into brain tumors, Cancer Res. 58(5):914–20 [1998]; Inamura et al. [1994]; Nakano, S. et al., Increased brain tumor microvessel permeability after intracarotid bradykinin infusion is mediated by nitric oxide, Cancer Res. 56(17):4027–31 [1996]). Briefly, RG2 cells derived from a rat glioma are kept frozen until use, then are thawed and maintained in a monolayer culture in F12 medium with 10% calf serum.
The Wistar rats (approximately 140–160 g body weight) were anesthetized with intra-peritoneal ketamine (50 mg/kg), and glial cells (1×10^5) were implanted into the right hemisphere, but not the contralateral hemisphere, by intracerebral injection suspended in 5 μL F12 medium (1–2% methylcellulose) by a Hamilton syringe. The implantation coordinates were 3-mm lateral to the bregma and 4.5 mm deep to the dural surface. […]

Series [2] relates to contralateral normal brain tissue of Wistar rats with implanted RG2 tumor. As to the kind of experiment: In vivo apoptosis, intracarotid infusion, contralateral tissue (FACS). As to conditions: 20 μg/kg body mass bolus, positive control (FIG. 8J). An excerpt:
The changes in plasma membrane are one of the earliest events in cell death. In apoptotic cells the membrane phospholipid phosphatidylserine (PS) is translocated from the inner to the outer leaflet of the cell membrane in the early phases of apoptosis. Annexin V is a Ca^2+-dependent, phospholipid-binding protein that binds to PS with high affinity. Consequently, Annexin V (PharMingen) conjugated to a label, such as fluorescein isothiocyanate (FITC) or biotin, serves as a sensitive probe for flow cytometry analysis of cells that are undergoing apoptosis. […] (PharMingen; Vermes, I. et al., A novel assay for apoptosis. Flow cytometric detection of phosphatidylserine expression on early apoptotic cells using fluorescein labelled Annexin V, J. Immunol. Meth. 184:39–51 [1995]). Concurrently, propidium iodide is typically used as a standard flow cytometric viability probe, because the intact cell membranes of viable cells exclude propidium iodide, whereas the cell membranes of dead and damaged cells are permeable to propidium iodide. […]

Series [3] relates to PTK activity in RG2 cell lysate. The series is described as follows: Protein tyrosine kinase (PTK) assay. The following applies: 1–50 μM (FIG. 10). The class given is biochemical, rat. Here is the method:
A PTK assay kit (The Oncogene Research Products, Boston, Mass.) was used to determine the presence and relative amounts of protein kinase activity in tissue cytosols and cell extracts. Briefly, 1×10^4 RG2 cells seeded in a 50-mL culture flask, and allowed to achieve confluency to form a monolayer at 37° C. in a CO2 incubator.
Briefly, RG2 cells were harvested after trypsinization, and cells were pelleted by centrifugation. Cells were resuspended with extraction buffer (20 mM Tris, pH 7.4, 50 mM NaCl, 1 mM EDTA, 1 mM EGTA, 0.2 mM PMSF, 1 μg/mL pepstatin, 0.5 μg/mL leupetin, 0.2 mM Na3VO4, 5 mM mercaptoethanol, 0.1% Triton X-100), and cells were lysed using a cell homogenizer. After centrifugation, supernatant was separated from the pellet for PTK assay. The supernatant was treated with superoxide dismutase. Pervanadate (100 mM) was used in the PTK assay to inhibit […] activity, and protein concentration was determined by Lowry's method using a Bio-Rad protein assay kit. […]
Assay for PTK activity in RG2 cell-lysates was then performed according to the protocol supplied by the PTK assay kit's manufacturer. After adding the stop solution, absorbance measured in each well at 450 nm using a Spectramax Plus (Molecular Devices, Sunnyvale, Calif.).

Structures are written as SMILES.

With `CN[C@@H]1C[C@H]2O[C@@](C)([C@@H]1OC)n1c3ccccc3c3c4c(c5c6ccccc6n2c5c31)C(=O)NC4` [staurosporin], the values for the apoptotic cells (with U87 human glioma cells; in series [1]; in series [2]) were 31%, 35% and 5%, respectively. In addition, the necrotic cells with U87 human glioma cells stood at 27%; in series [1], 17%; in series [2] it was 11%.
As to `CC(C)[C@@H]1NC(=O)[C@H](C)OC(=O)[C@@H](C(C)C)NC(=O)[C@@H](C(C)C)OC(=O)[C@H](C(C)C)NC(=O)[C@H](C)OC(=O)[C@@H](C(C)C)NC(=O)[C@@H](C(C)C)OC(=O)[C@H](C(C)C)NC(=O)[C@H](C)OC(=O)[C@@H](C(C)C)NC(=O)[C@@H](C(C)C)OC1=O` [Valinomycin], the PTK activity result in series [3] is given as “inhibited PTK activity in RG2 cell lysate in a dose-dependent manner”.
